Measured values: ChEMBL document CHEMBL1201862, “PubChem BioAssay data set” (2004)
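Five compound concentrations were applied to cells in 96-well plates for 48 hours; endpoints were derived by simple linear interpolation of the resulting dose-response curve. GI50 marks 50% less growth.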 Active and inactive are the calls of the source. Rule as the data show it: active = GI50 up to about 1.1 µM and inactive = higher.

Tests used:
Assay in all cases: NCI tumour cell line growth inhibition, 48 h
CCRF-CEM = tested on: CCRF-CEM
SNB-75 = tested on: SNB-75
Hs-578T = tested on: Hs-578T
CAKI-1 = tested on: CAKI-1
SK-MEL-2 = tested on: SK-MEL-2
RXF 393 = tested on: RXF 393
A549 = tested on: A549
OVCAR-5 = tested on: OVCAR-5
SF-268 = tested on: SF-268
OVCAR-4 = tested on: OVCAR-4
Malme-3M = tested on: Malme-3M
HCT-15 = tested on: HCT-15
KM12 = tested on: KM12
T47D = tested on: T47D
M14 = tested on: M14
UO-31 = tested on: UO-31
MDA-MB-435 = tested on: MDA-MB-435
U-251 = tested on: U-251
MOLT-4 = tested on: MOLT-4
RPMI-8226 = tested on: RPMI-8226

SMILES	GI50 (CCRF-CEM)	GI50 (SNB-75)	GI50 (Hs-578T)	GI50 (CAKI-1)	GI50 (SK-MEL-2)	GI50 (RXF 393)	GI50 (A549)	GI50 (OVCAR-5)	GI50 (SF-268)	GI50 (OVCAR-4)	GI50 (Malme-3M)	GI50 (HCT-15) [µM]	GI50 (KM12)	GI50 (T47D)	GI50 (M14)	GI50 (UO-31)	GI50 (MDA-MB-435)	GI50 (U-251)	GI50 (MOLT-4)	GI50 (RPMI-8226)
Oc1c(C(Nc2ccccn2)c2ccccc2)ccc2cccnc12 (stereo not given)	1.37 µM (inactive)	6.24 µM (inactive)	12.4 µM (inactive)	4.09 µM (inactive)	3.55 µM (inactive)	3.84 µM (inactive)	4.35 µM (inactive)	7.78 µM (inactive)	2.94 µM (inactive)	3.5 µM (inactive)	1.46 µM (inactive)	1.98	4.59 µM (inactive)	3.94 µM (inactive)	3.08 µM (inactive)	3.14 µM (inactive)	5.73 µM (inactive)	2.72 µM (inactive)	2.39 µM (inactive)	2.56 µM (inactive)
CCc1nnc(S)n1/N=C\c1ccc(-c2ccccc2Cl)o1	27.5 µM (inactive)	28.2 µM (inactive)	57 µM (inactive)	45.3 µM (inactive)	30.8 µM (inactive)	38.9 µM (inactive)	32.6 µM (inactive)	64.6 µM (inactive)	32.1 µM (inactive)	39.4 µM (inactive)	55.7 µM (inactive)	28.2	28.8 µM (inactive)	25.1 µM (inactive)	33.2 µM (inactive)	37.7 µM (inactive)	21 µM (inactive)	32.3 µM (inactive)	17.5 µM (inactive)	20.5 µM (inactive)
CCCCCC(O)C1C(=O)OC(C)C(O)/C=C/C=C/C=C/C=C\C=C(\C)C(O)CC(O)CC(O)CC(O)CC(O)CC(O)CC1O (stereo not given)	> 50 µM (inactive)	> 50 µM (inactive)	> 50 µM (inactive)	> 50 µM (inactive)	> 50 µM (inactive)	> 50 µM (inactive)	> 50 µM (inactive)	> 50 µM (inactive)	> 50 µM (inactive)	11.1 µM (inactive)	> 50 µM (inactive)	> 50	> 50 µM (inactive)	> 50 µM (inactive)	> 50 µM (inactive)	> 50 µM (inactive)	> 50 µM (inactive)	> 50 µM (inactive)	> 50 µM (inactive)	> 50 µM (inactive)
CCOP(=O)(C/C=C/Cn1ncc(=O)[nH]c1=O)OCC	> 100 µM (inactive)	> 100 µM (inactive)	> 100 µM (inactive)	> 100 µM (inactive)	> 100 µM (inactive)	> 100 µM (inactive)	> 100 µM (inactive)	> 100 µM (inactive)	> 100 µM (inactive)	> 100 µM (inactive)	> 100 µM (inactive)	> 100	> 100 µM (inactive)	> 100 µM (inactive)	> 100 µM (inactive)	> 100 µM (inactive)	> 100 µM (inactive)	> 100 µM (inactive)	> 100 µM (inactive)	> 100 µM (inactive)
C=CCn1c(-c2ccc(Cl)cc2)cs/c1=N\c1ccccc1OC	8.55 µM (inactive)	> 33.3 µM (inactive)	> 100 µM (inactive)	> 45.2 µM (inactive)	> 74.3 µM (inactive)	> 100 µM (inactive)	33 µM (inactive)	> 59.3 µM (inactive)	> 100 µM (inactive)	> 58.5 µM (inactive)	31.1 µM (inactive)	50	15.8 µM (inactive)	2.34 µM (inactive)	10.1 µM (inactive)	> 100 µM (inactive)	5.06 µM (inactive)	> 69.5 µM (inactive)	0.179 µM (active)	5.6 µM (inactive)
CCOC(=O)c1c(N/C(S)=N/c2ccccc2)sc2c1CCOC2	63.7 µM (inactive)	17.5 µM (inactive)	67.3 µM (inactive)	43.3 µM (inactive)	74.6 µM (inactive)	69.2 µM (inactive)	53.1 µM (inactive)	38.4 µM (inactive)	64.1 µM (inactive)	61.5 µM (inactive)	52.1 µM (inactive)	46.7	69.5 µM (inactive)	24 µM (inactive)	39.1 µM (inactive)	45.9 µM (inactive)	56.6 µM (inactive)	> 100 µM (inactive)	69.5 µM (inactive)	55.5 µM (inactive)
CN(CCC#N)c1ccc(/C=C2\SC(=S)NC2=O)cc1	6.75 µM (inactive)	35 µM (inactive)	33.3 µM (inactive)	> 100 µM (inactive)	35 µM (inactive)	23.6 µM (inactive)	34.1 µM (inactive)	> 100 µM (inactive)	63.1 µM (inactive)	62.8 µM (inactive)	> 100 µM (inactive)	48.2	40.7 µM (inactive)	51.2 µM (inactive)	67.6 µM (inactive)	27.2 µM (inactive)	31.6 µM (inactive)	32.8 µM (inactive)	42 µM (inactive)	34 µM (inactive)
C(/C=N/c1ccccc1)=C(/Nc1ccccc1)c1ccc2ccccc2c1	1.1 µM (active)	1.64 µM (inactive)	2.58 µM (inactive)	0.667 µM (active)	5.55 µM (inactive)	1.66 µM (inactive)	4.08 µM (inactive)	2.51 µM (inactive)	4.71 µM (inactive)	1.99 µM (inactive)	1.78 µM (inactive)	1.06	1.78 µM (inactive)	2.36 µM (inactive)	1.87 µM (inactive)	3.13 µM (inactive)	0.299 µM (active)	2.65 µM (inactive)	1 µM (active)	1.79 µM (inactive)
CN1C(=O)c2ccccc2OC12C=Cc1c(ccc3ccccc13)O2 (stereo not given)	3.83 µM (inactive)	4.84 µM (inactive)	3.85 µM (inactive)	5.66 µM (inactive)	3.34 µM (inactive)	3.85 µM (inactive)	3.47 µM (inactive)	6.47 µM (inactive)	3.78 µM (inactive)	5.56 µM (inactive)	0.328 µM (active)	2.95	2.21 µM (inactive)	5.43 µM (inactive)	3.03 µM (inactive)	6.52 µM (inactive)	2.29 µM (inactive)	3.42 µM (inactive)	3.53 µM (inactive)	3.02 µM (inactive)
CN(C)CCCNc1ccc2ncn3c4ccc(O)cc4c(=O)c1c23	0.218 µM (active)	0.601 µM (active)	0.541 µM (active)	0.195 µM (active)	6.21 µM (inactive)	0.439 µM (active)	0.0721 µM (active)	3.03 µM (inactive)	0.957 µM (active)	1.55 µM (inactive)	2.83 µM (inactive)	1.91	3.14 µM (inactive)	12 µM (inactive)	1.65 µM (inactive)	1.35 µM (inactive)	4.88 µM (inactive)	0.203 µM (active)	0.0406 µM (active)	1.58 µM (inactive)
Nc1ncnc2c1ncn2C1OC(C(=O)OCCO)C(O)C1O (stereo not given)	> 100 µM (inactive)	> 100 µM (inactive)	> 100 µM (inactive)	> 100 µM (inactive)	> 100 µM (inactive)	> 100 µM (inactive)	> 100 µM (inactive)	> 100 µM (inactive)	> 100 µM (inactive)	> 100 µM (inactive)	> 100 µM (inactive)	> 100	> 100 µM (inactive)	> 100 µM (inactive)	> 100 µM (inactive)	> 100 µM (inactive)	> 100 µM (inactive)	> 100 µM (inactive)	> 100 µM (inactive)	> 100 µM (inactive)
C=C1C[C@@H]2CC[C@@]34CC5O[C@H]6C(O[C@H]7CC[C@H](CC(=O)O[C@@H]8[C@@H](C)[C@@H]9O[C@@H]%10C[C@]%11(C[C@@H]%12O[C@]%13(C[C@H](C)[C@@H]%14O[C@@H]%15CC(C(O)CO)O[C@@H]%15C[C@@H]%14O%13)C[C@H](C)[C@@H]%12O%11)O[C@@H]%10C[C@@H]9O[C@H]8CC8O[C@@H](CC[C@@H]1O2)C[C@@H](C)C8(O)CO)O[C@@H]7[C@@H]6O3)[C@H]5O4 (stereo not given in full)	> 1 µM (active)	0.294 µM (active)	0.0627 µM (active)	> 1 µM (active)	> 0.859 µM (active)	0.516 µM (active)	> 0.891 µM (active)	> 1 µM (active)	> 1 µM (active)	> 1 µM (active)	0.394 µM (active)	> 0.638	> 0.726 µM (active)	> 1 µM (active)	> 0.944 µM (active)	> 1 µM (active)	0.294 µM (active)	> 1 µM (active)	> 1 µM (active)	> 0.849 µM (active)
